Source: ChEMBL document CHEMBL5214928, “DEAD-Box Helicase DDX3X as a Host Target against Emerging Viruses: New Insights for Medicinal Chemical Approaches” (J Med Chem, 2022)

Columns and labels:
[1] = target: T1, ATP-dependent RNA helicase DDX3X (Homo sapiens, UniProt O00571); assay: Inhibition of recombinant DDX3X (unknown origin) helicase activity using 6-FAM-labeled dsRNA as substrate incubated for 30 mins by fluorescence based assay
[2] = target: T1, ATP-dependent RNA helicase DDX3X; assay: Inhibition of DDX3X (unknown origin) helicase activity
[3] = Cytotoxicity against human LucUbiNeo-ET cells assessed as reduction in cell viability by MTT assay; type: functional
Hepatitis C virus [4] = assay: Antiviral activity against HCV-1 infected in human LucUbiNeo-ET cells assessed as reduction in viral replication incubated for 2 days by luminometry; type: functional, organism-based, Hepacivirus hominis; conditions: genotype 1, LucUbiNeo-ET, 48 h
[5] = Half life in mouse administered intravenously; type: ADME; conditions: in vivo, route iv
[6] = Selectivity index, ratio of CC50 for human LucUbiNeo-ET cells to EC50 for HCV-1 infected in human LucUbiNeo-ET cells; type: toxicity, cell-based; conditions: read-out: Ratio CC50/EC50
[7] = target: T1, ATP-dependent RNA helicase DDX3X; assay: Binding affinity to DDX3X (unknown origin) assessed as inhibition constant
HeLa = assay: Cytotoxicity against human HeLa cells assessed as reduction in cell viability incubated for 72 hrs with replacement of medium containing compound for every 24 hrs by MTS based Cell Titer 96 viability assay; type: functional
SARS-CoV-2 = assay: Antiviral activity against SARS-CoV-2 isolate 2019-nCoV/Italy-INMI1 infected in African green monkey Vero E6 cells assessed as reduction in viral replication at MOI of 0.01 incubated for 5 days by qRT-PCR analysis; type: functional, organism-based; conditions: Severe acute respiratory syndrome coronavirus 2, 2019-nCoV/Italy-INMI1, Vero C1008, 120 h
[8] = Selectivity index, ratio of CC50 for human HeLa cells to EC50 for recombinant HIV-1 infected in CD4+ human HeLa cells; type: toxicity, cell-based; conditions: read-out: Ratio CC50/EC50
[9] = system: Human immunodeficiency virus 1; assay: Antiviral activity against recombinant HIV-1 infected in CD4+ human HeLa cells assessed as reduction in viral replication; type: functional, organism-based; conditions: Human immunodeficiency virus 1, HeLa
[10] = Cytotoxicity against African green monkey Vero E6 cells assessed as reduction in cell viability; type: toxicity, cell-based, Vero C1008; conditions: chlorocebus sabaeus
Hepatitis C virus [11] = assay: Antiviral activity against HCV-1 infected in hepatoma cells (unknown origin) assessed as reduction in viral replication; type: functional, organism-based, Hepacivirus hominis; conditions: genotype 1, Hepatoma cell line
[12] = Selectivity index, ratio of CC50 for hepatoma cells (unknown origin) to EC50 for HCV-1 infected in hepatoma cells (unknown origin); type: toxicity, cell-based; conditions: read-out: Ratio CC50/EC50
Huh-7 = assay: Cytotoxicity against human Huh-7 cells assessed as reduction in cell viability; type: functional
[13] = Selectivity index, ratio of CC50 for human Huh-7 cells to EC50 for WNV infected in human Huh-7 cells; type: toxicity, cell-based; conditions: read-out: Ratio CC50/EC50
West Nile virus = assay: Antiviral activity against WNV infected in human Huh-7 cells assessed as reduction in viral replication; type: functional, organism-based
Hepatoma cell line = assay: Cytotoxicity against hepatoma cells (unknown origin) assessed as reduction in cell viability; type: functional

T1 sequence (O00571 whole entry): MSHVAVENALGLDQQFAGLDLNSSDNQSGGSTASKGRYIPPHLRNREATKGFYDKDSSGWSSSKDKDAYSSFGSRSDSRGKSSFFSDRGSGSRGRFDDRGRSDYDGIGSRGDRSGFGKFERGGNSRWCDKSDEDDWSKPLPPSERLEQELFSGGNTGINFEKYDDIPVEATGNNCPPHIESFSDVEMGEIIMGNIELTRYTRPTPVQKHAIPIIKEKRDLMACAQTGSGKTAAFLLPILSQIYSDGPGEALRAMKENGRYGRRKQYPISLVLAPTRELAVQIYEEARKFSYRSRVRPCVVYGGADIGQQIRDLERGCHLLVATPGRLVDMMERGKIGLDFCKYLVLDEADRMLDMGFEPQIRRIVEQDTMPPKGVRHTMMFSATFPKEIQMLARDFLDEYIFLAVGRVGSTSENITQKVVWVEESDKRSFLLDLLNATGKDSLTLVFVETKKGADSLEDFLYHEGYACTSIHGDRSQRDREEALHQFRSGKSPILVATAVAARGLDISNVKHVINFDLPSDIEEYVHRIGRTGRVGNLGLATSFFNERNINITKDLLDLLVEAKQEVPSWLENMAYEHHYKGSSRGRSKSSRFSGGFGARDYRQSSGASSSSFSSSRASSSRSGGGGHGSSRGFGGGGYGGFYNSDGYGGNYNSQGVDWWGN

## O=[N+]([O-])c1cccc(S(=O)(=O)Nc2ccccc2O)c1
[1]
  IC50: 360 nM

## CCCCc1cn(-c2ccc(NC(=O)Nc3ccccc3OC3CCCC3)cc2)nn1
[2]
  IC50: 140 nM

## CCCCc1cn(-c2ccc(NC(=O)Nc3ccccc3F)cc2)nn1
[2]
  IC50: 600 nM

## CC(C)Cc1cn(-c2ccc(NC(=O)Nc3ccc4cnccc4c3)cc2)nn1
[3]
  CC50: > 312000 nM
Hepatitis C virus [4]
  EC50: 900 nM
[5]
  half-life: 5 h
[2]
  IC50: 150 nM
[6]
  selectivity ratio: 94

## Cc1ccccc1NC(=O)Nc1ccc(-n2cc(CO)nn2)cc1
[2]
  Ki: 17500 nM

## COc1cc(/C=C2\SC(=S)N(CCC(=O)Nc3ccccc3O)C2=O)cc(OC)c1OC
[7]
  Ki: 3900 nM

## COc1ccc(/C=C2\SC(=S)N(CCC(=O)Nc3ccccc3OC)C2=O)cc1
[7]
  Ki: 11000 nM

## O=C(CCN1C(=O)/C(=C/c2cccc(F)c2)SC1=S)Nc1ccccc1O
[7]
  Ki: 7600 nM

## O=C(CCN1C(=O)/C(=C/c2ccccc2O)SC1=S)Nc1cccc(F)c1
HeLa
  CC50: 50000 nM
SARS-CoV-2
  EC50: < 5000 nM
[8]
  selectivity ratio: 7
[9]
  EC50: 7500 nM
[7]
  Ki: 300 nM
[10]
  CC50: > 100000 nM

## O=C(O)c1cc(Nc2nc3ccccc3[nH]2)ccc1O
[1]
  IC50: 200 nM

## O=C(NCCN1C(=O)/C(=C/c2ccccc2O)SC1=S)c1cccc(F)c1
[7]
  Ki: 4300 nM

## COc1cc(/C=C2\SC(=S)N(CCC(=O)Nc3ccccc3Cl)C2=O)cc(OC)c1OC
[7]
  Ki: 100 nM

## Cc1ccc(Nc2nc(N/N=C/c3ccccc3O)nc(NN3CCOCC3)n2)cc1Cl
[7]
  Ki: 1600 nM

## C(=N\Nc1nc(Nc2ccccc2)nc(Nc2ccccc2)n1)/c1ccccc1
[7]
  Ki: 7500 nM

## O=C(NCCN1C(=O)/C(=C/c2ccccc2O)SC1=S)c1cccc(Br)c1
[7]
  Ki: 4200 nM

## O=C1S/C(=C\c2c(NCCO)nc3ccccn3c2=O)C(=O)N1CCc1ccccc1
[7]
  Ki: 200 nM

## Oc1ccccc1/C=N/Nc1nc(NCc2ccc(F)cc2)nc(NN2CCOCC2)n1
[7]
  Ki: 700 nM

## O=C(CCN1C(=O)/C(=C/c2ccc3c(c2)OCO3)SC1=S)Nc1ccccc1[N+](=O)[O-]
[7]
  Ki: 1000 nM

## CCCCc1cn(-c2ccc(NC(=O)Nc3ccc(C)nc3)cc2)nn1
[2]
  IC50: 1500 nM

## CCCCCCCCCCCCCCCCCCNC1=NC(=O)C2C(N=CN2[C@@H]2O[C@H](CO)[C@@H](O)[C@H]2O)C(=O)N1 (some centres undefined)
Hepatitis C virus [11]
  EC50: 18000 nM
[12]
  selectivity ratio: > 35
Huh-7
  CC50: > 100000 nM
[13]
  selectivity ratio: > 195
West Nile virus
  EC50: 510 nM
Hepatoma cell line
  CC50: > 630000 nM
